{
  "source": "patent US20260028654A1",
  "about": "“BIOTECHNOLOGICAL PRODUCTION OF MACROCYCLIC LACTONES” (SYMRISE AG, priority 2022, published 2026)",
  "key": {"[1]": {"test_system": "cyclododecanone monooxygenase (CDMO)", "assay": "Spectro-photometric activity assay (NADPH consumption at 340 nm), cell-free lysate containing CDMO", "assay_type": "biochemical, Rhodococcus species", "conditions": "0.25 mM Globanone, 0.3 mM NADPH, pH 9.0, 30° C.", "text": "(§1) The genes for the two Baeyer-Villiger Monooxygenases (BVMOs) cyclopentadecanone monooxygenase from a Pseudomonas species (CPDMO, Iwaki, H. et al., Appl. Environ. Microbiol. (2006), 72 (4): 2707-2720) and cyclododecanone monooxygenase from a Rhodococcus species (CDMO, Kostichka, K. et al., J. Bacteriol. (2001), 183 (21): 6478-6486) were cloned using standard molecular biology tools. For recombinant enzyme production in Escherichia coli an L-arabinose inducible vector derived from a pBAD plasmid carrying a kanamycin/neomycin resistance gene was used in an E. coli K-12 strain, in which the Larabinose catabolism is disrupted. Glycerol stocks were used to inoculate 5 ml overnight cultures (LB, 100 μg/ml neomycin). […]\n(§2) Protein concentrations of the lysates were determined to calculate specific activities (Protein determination by Bradford). The concentrations of total protein in the cell-free extracts (CFEs) were determined using a modified protein-dye binding method as described by Bradford in Anal. Biochem. 72: 248-254 (1976).\n(§3) To determine if the two BVMOs were active on Globanone® a spectro-photometric activity assay was applied. The assay makes use of the strong absorbance decrease at 340 nm upon consumption of the NADPH cofactor. […] The decrease of absorbance was followed for 3 minutes before substrate addition to detect potential, unspecific NADPH oxidation. […]"}, "[2]": {"test_system": "cyclopentadecanone monooxygenase (CPDMO)", "assay": "Spectro-photometric activity assay (NADPH consumption at 340 nm), cell-free lysate containing CPDMO", "assay_type": "biochemical, Pseudomonas species", "conditions": "0.25 mM Globanone, 0.3 mM NADPH, pH 9.0, 30° C.", "text": "as §1, §2, §3"}},
  "data": [
    {"smiles": "O=C1CCCCCCC=CCCCCCCC1", "note": "[Globanone®]", "values": [
      {"measurement": "volumetric activity", "setting": "[1]; E. coli cell-free lysate containing CDMO (18.6 mg/ml protein)", "result": 3.71, "unit": "U/ml"},
      {"measurement": "specific activity", "setting": "[1]; per mg total cell-free lysate protein, CDMO lysate", "result": 0.20, "unit": "U/mg"},
      {"measurement": "volumetric activity", "setting": "[2]; E. coli cell-free lysate containing CPDMO (9.9 mg/ml protein)", "result": 0.04, "unit": "U/ml"},
      {"measurement": "specific activity", "setting": "[2]; per mg total cell-free lysate protein, CPDMO lysate", "result": 0.004, "unit": "U/mg"}
    ]}
  ]
}
